Test results from article PMC7998721, “A Comparative Study of the Effects of Platinum (II) Complexes on β-Amyloid Aggregation: Potential Neurodrug Applications” (International Journal of Molecular Sciences, 2021).

What was measured:
[1] = molecular target: T1, β-amyloid Aβ21–40 (C-terminal fragment of Aβ1–40) (Homo sapiens, UniProt P05067); test: UV/Vis titration; ESI-MS […] adduct; also ThT aggregation; format: binding
T1 construct: gene APP

[2] = molecular target: T1, β-amyloid Aβ21–40 (C-terminal fragment of Aβ1–40); test: UV/Vis titration; ESI-MS […] adduct; also ThT aggregation and CD; format: binding

T1 sequence (P05067 692-711): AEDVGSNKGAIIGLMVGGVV

Row | SMILES | EC50 [1] | EC50 [2]
1 | [Cl][Pt-2]1([Cl])[n+]2cccc3ccc4ccc[n+]1c4c32 [Pt-phen, (SP-4-2)-dichlorido(1,10-phenanthroline)platinum(II)] | 49 ± 20 µM | –
2 | [Cl][Pt-2]12[n+]3ccccc3-c3cccc([n+]31)-c1cccc[n+]12 [Pt-terpy, (SP-4-2)-chlorido(2,2′:6′,2′′-terpyridine)platinum(II) chloride] | – | 68 ± 14 µM
